Measured values published in the METLIN SMRT retention time set (Domingo-Almenara et al. 2019).

Test: gradient 5% acetonitrile 3 min, to 50% in 2 min, to 85% in 15 min, held 3 min, 100 µL/min
Conditions: column: Zorbax Extend-C18 2.1 x 50 mm; eluents: water / acetonitrile, 0.1% formic acid
Method in brief: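 Pure standards were analyzed in mixtures of ~100 molecules using HPLC coupled to a quadrupole time-of-flight mass spectrometer, in both positive and negative ionization mode. Separation used a Zorbax Extend-C18 column (2.1 × 50 mm, 1.8 μm) at 100 μL/min, with water and acetonitrile each containing 0.1% formic acid. Dead and dwell volumes were 40 μL and 900 μL, and data were collected over 3 months. Retention time was read from computationally picked adduct peaks, each inspected manually.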

O=C(CSC1=Nc2ccccc2N=C(c2ccc(F)cc2)C1)NC1CCCC1
RP-LC retention time: 1130 s

CCc1onc(C)c1C1CCCN1C(=O)c1ccccc1F (centres undefined)
RP-LC retention time: 775 s

Cc1ccc(C)c(CNC(=O)C2CCN(c3cncnc3N3CCOCC3)CC2)c1
RP-LC retention time: 654 s

Cc1nc(N2CCN(Cc3ccccc3)CC2)nc2c1C(=O)CC(c1ccc(Cl)cc1)C2 (centres undefined)
RP-LC retention time: 825 s

Cc1ccc(S(=O)(=O)c2cnc(N3CCN(C(=O)OC(C)(C)C)CC3)nc2N)cc1
RP-LC retention time: 1030 s

COc1ccccc1-c1ccc(SCc2cccc(C)c2)nn1
RP-LC retention time: 1080 s

CCOC(=O)c1c(S(=O)(=O)N2CCC(C(=O)Nc3cccc(F)c3)CC2)c(C)n(C)c1C
RP-LC retention time: 862 s

CCc1cccc(NC(=O)c2cc(CC)n3nccc3n2)c1
RP-LC retention time: 1150 s

Cc1oc2c(c1C(=O)NCCc1ccccc1Cl)C1=NCCN1C=N2
RP-LC retention time: 651 s

CCn1cnnc1C1CCN(C(=O)c2sccc2C)CC1
RP-LC retention time: 561 s

COc1ccc(-c2cc3n(n2)CCCN(C(=O)c2cccnc2)C3)cc1
RP-LC retention time: 665 s

CN(C)C(=O)c1ccc2c(c1)N(CC(=O)Nc1ccccn1)C(=O)C1CCCCN21 (centres undefined)
RP-LC retention time: 680 s

Cc1ccccc1-c1nc2cnccn2c1NCCC(=O)NCc1cccc(Cl)c1
RP-LC retention time: 717 s

Cc1nn(-c2nc(-c3ccc(F)cc3)cs2)c(C)c1CC(=O)Nc1cccc(C(F)(F)F)c1
RP-LC retention time: 1280 s

Cc1ccc(CNC(=O)C2CCCN2S(=O)(=O)c2cc3c(cc2C)NC(=O)CO3)cc1 (centres undefined)
RP-LC retention time: 777 s

CN(C)c1ccc(CNC(=O)Cn2nc(C(=O)N3CCCC3)c3ccccc32)cc1
RP-LC retention time: 612 s

COc1ccc(NC(=O)CSc2nccc(N3CCCC3)n2)cc1Cl
RP-LC retention time: 593 s

CCOc1ccc(CNC(=O)C2CCN(C(=O)C3Sc4ccccc4NC3=O)CC2)cc1OC (centres undefined)
RP-LC retention time: 712 s

CN1CCCCCCN(C(=O)C2(c3ccccc3)CC2)[C@H]2CCC[C@H]2C1=O
RP-LC retention time: 958 s

CCc1ccc(NC(=O)Cn2cnc3nc(N4CCCC(C(=O)NC(C)C)C4)sc3c2=O)cc1 (centres undefined)
RP-LC retention time: 710 s

CC(C)(Oc1ccc(Cl)cc1)C(=O)Nc1nnc(C2CC(=O)N(c3ccccc3)C2)o1 (centres undefined)
RP-LC retention time: 793 s

COc1cccc(NC(=O)N2CCN(c3nc4ccccc4n3C)CC2)c1
RP-LC retention time: 616 s

CN(CCc1noc(-c2ccc(C(=O)N3CCCCC3)cc2)n1)C(=O)C1CC1
RP-LC retention time: 742 s

O=C(NCCc1ccccc1)NCCn1c(-c2ccccc2)nc2cccnc21
RP-LC retention time: 683 s

CCC(=O)N1CCc2c(sc3ncnc(N4CCc5ccccc54)c23)C1
RP-LC retention time: 734 s

Cc1cccc(-c2noc(C3CCCN3C(=O)Nc3ccccc3F)n2)c1 (centres undefined)
RP-LC retention time: 1020 s

COc1ccc(NC(=O)NCC23CCC=C2N(C)C(=O)CC3)cc1 (centres undefined)
RP-LC retention time: 745 s

CCOc1ccc(NC(=O)C2CCN(c3cc(N4CCSCC4)ncn3)CC2)cc1
RP-LC retention time: 693 s

O=C(CSc1ccc(-c2ccccn2)nn1)N1CCCCC1
RP-LC retention time: 669 s

O=C(CSc1ccccc1)N1CCc2nc(-c3ccc(F)cc3)ncc2C1
RP-LC retention time: 1000 s

O=S(=O)(Nc1cccc(Cl)c1)c1ccc(-c2nnc(C3CCC3)o2)o1
RP-LC retention time: 967 s

Cc1cccc(Sc2nccnc2N2CCCC(C(=O)N3CCN(c4ccccc4F)CC3)C2)c1 (centres undefined)
RP-LC retention time: 1280 s

Cn1nccc1C(=O)N1CCN(S(=O)(=O)c2ccc3c(c2)sc(=O)n3C)CC1
RP-LC retention time: 699 s

CCCN1CCN(C(=O)C2CCN(S(=O)(=O)c3ccc4c(c3)sc(=O)n4C(C)C)CC2)CC1
RP-LC retention time: 665 s

CC(C)C(=O)NCc1csc(C2CCN(C(=O)COc3ccccc3)CC2)n1
RP-LC retention time: 722 s

CCCN(CC1CCOC1)C(=O)Nc1cccc(Br)c1 (centres undefined)
RP-LC retention time: 876 s

CCn1cc(CC(=O)NCc2ccc(N3CCOCC3)cc2)c2cccnc21
RP-LC retention time: 632 s

CCOC(=O)c1nc(NCCc2ccc(OCC)cc2)c2ccccc2n1
RP-LC retention time: 836 s

CCOc1ccc(OCC)c(NC(=O)Cc2csc3nc(-c4ccc(OC)c(OC)c4)cn23)c1
RP-LC retention time: 870 s

O=c1c2cc(-c3ccccc3)nn2ccn1Cc1noc(CN2CCCC2)n1
RP-LC retention time: 646 s

COCCNC(=O)C1CCN(c2nc3ccc(-c4ccccc4F)nc3s2)CC1
RP-LC retention time: 827 s

O=C(NC1CC1)C1CCCN(S(=O)(=O)c2c[nH]c(C(=O)N3CCCCCC3)c2)C1 (centres undefined)
RP-LC retention time: 702 s

CC(C)CN1CCN(C(=O)c2nnc(-c3ccc(S(=O)(=O)N(C)C)cc3)o2)CC1
RP-LC retention time: 608 s

CNc1ncnc2c1cnn2C1CCCCO1 (centres undefined)
RP-LC retention time: 635 s

COCCC1CCN(C(=O)CN(C)C(=O)COc2ccccc2)CC1
RP-LC retention time: 694 s

Cc1cc(C(=O)N2CC(C(=O)NCCc3ccc(F)cc3)C2)no1
RP-LC retention time: 680 s

COc1cccc(NC(=O)Cn2cccc2-c2nnc(-c3ccccc3)o2)c1
RP-LC retention time: 940 s

O=C([C@@H]1C[C@H](F)CN1C(=O)c1ccco1)N1CCCCC1
RP-LC retention time: 626 s

O=C(NC1CCCCC1)C1CC(=O)N(c2ccc3c(c2)CCN3C(=O)C2CCC2)C1 (centres undefined)
RP-LC retention time: 824 s

Cc1cnc(C2CN(C(=O)C3(C)CCCCC3)C2)n1Cc1ccncc1
RP-LC retention time: 566 s

O=C(Cn1c(=O)n(-c2ccccc2)c2ncccc21)NCCCN1CCOCC1
RP-LC retention time: 596 s

Cn1nc(C2CCCN(C(=O)Nc3ccc4c(c3)OCCO4)C2)n(C2CCCC2)c1=O (centres undefined)
RP-LC retention time: 718 s

Cc1cc(C)cc(-c2nnc(Cc3nc(-c4ccccc4)no3)o2)c1
RP-LC retention time: 1130 s

COc1ccc(CN2C=C(C(=O)OCc3noc(C)n3)C(C)=NS2(=O)=O)cc1
RP-LC retention time: 873 s

CSc1cccc(NC(=O)N2CCC(C)(C(=O)NCc3ccc(F)cc3)CC2)c1
RP-LC retention time: 884 s

CCCC(=O)N1CCC(C(=O)Nc2nnc(C)s2)CC1
RP-LC retention time: 590 s

CCn1nc(CNC(=O)c2cc(C)cc(C)c2)c2ccccc21
RP-LC retention time: 938 s

COc1ccc(NC(=O)N2CCN(Cc3cn(C)c4ccccc34)CC2)cc1
RP-LC retention time: 658 s

Cc1ccc(F)c(NC(=O)c2cnc3c(c2)c(=O)n(C)c(=O)n3-c2ccccc2)c1
RP-LC retention time: 904 s

Cc1ccccc1S(=O)(=O)N1CCC(C(=O)NCc2csc(-c3cccs3)n2)CC1
RP-LC retention time: 898 s

Cn1c(=O)n([C@H]2CCCN(C(=O)Nc3ccc(F)cc3F)C2)c2ncccc21
RP-LC retention time: 752 s

CCCc1noc(-c2ccc(-n3ncc(C(=O)N4CCCC(C)C4)c3C)nc2)n1 (centres undefined)
RP-LC retention time: 1130 s

Cn1c(C2CCN(C(=O)c3ccsc3)C2)nc2cccnc21 (centres undefined)
RP-LC retention time: 606 s

CC1CCN(c2ncc3c(n2)CCN(Cc2ccc(OC(C)C)cc2)C3)CC1
RP-LC retention time: 807 s

O=C(N[C@H]1C[C@@H]2C[C@H]1CN2C(=O)NCCc1ccccc1)c1ccccc1
RP-LC retention time: 734 s

COc1ccc(-c2oc3c(CC=C(C)C)c(O)cc(O)c3c(=O)c2O)cc1
RP-LC retention time: 1040 s

CC(C)CNC(=O)CCC(=O)N1c2ccccc2NC2=C(C(=O)CC(C)(C)C2)C1c1ccco1 (centres undefined)
RP-LC retention time: 743 s

CCC(=O)N1CCc2cc(C)c(S(=O)(=O)NC(C)C)cc21
RP-LC retention time: 796 s

COc1ccc(S(=O)(=O)N2CCCC(C(=O)NCc3ccccn3)C2)cc1OC (centres undefined)
RP-LC retention time: 604 s

O=C(Cn1nc2n(c1=O)CCCC2)Nc1ccc(C(F)(F)F)cc1
RP-LC retention time: 716 s

CCOc1ccc(S(=O)(=O)N2C[C@@H]3C[C@H](NC(=O)c4ccccc4)[C@H]2C3)cc1
RP-LC retention time: 900 s

Cc1ccc(NC(=O)CC(C)S(=O)(=O)c2ccc3c(c2)CCN3C(=O)C2CC2)cc1N(C)C (centres undefined)
RP-LC retention time: 983 s

CCC(=O)N1CCc2c(sc3ncnc(NCCc4ccccc4)c23)C1
RP-LC retention time: 834 s

CCOC(=O)Nc1nc2c(s1)CN(S(=O)(=O)N(C)C)CC2
RP-LC retention time: 670 s

Cc1ccc(NS(=O)(=O)c2cc3n(c2)CCN(C)C3=O)cc1C
RP-LC retention time: 722 s

Cc1cccc(-c2nc(-c3ccc4c(c3)oc(=O)n4C(C)C)no2)c1
RP-LC retention time: 1250 s

Nc1ccc(CCNc2ncnc3c2ncn3C2OC(CO)C(O)C2O)cc1 (centres undefined)
RP-LC retention time: 540 s

O=C(CCN1C(=O)C2C3C=CC(C3)C2C1=O)Nc1nc(-c2ccccc2)cs1 (centres undefined)
RP-LC retention time: 926 s

CN(C)c1cccc(C(=O)Nc2ccc(-c3nnc4n3CCCC4)cc2)c1
RP-LC retention time: 736 s

O=C(Nc1ccc2c(c1)CCC(=O)N2Cc1ccccc1)c1ccccc1C(F)(F)F
RP-LC retention time: 855 s

COc1ccccc1C1(CNC(=O)C(=O)NCCC2=CCCCC2)CCOCC1
RP-LC retention time: 998 s

CCOC(=O)O[C@]1(C(=O)OCCl)CCC2[C@@H]3CCC4=CC(=O)C=C[C@]4(C)C3[C@@H](O)C[C@@]21C (some centres undefined)
RP-LC retention time: 1110 s

Cc1nc(-c2ccccc2)sc1C(=O)NC1CC1
RP-LC retention time: 799 s

COc1ccc(CN2C=C(C(=O)OCc3noc(-c4ccco4)n3)C(C)=NS2(=O)=O)cc1
RP-LC retention time: 1000 s

CCCNC(=O)C1CCN(c2ccc(SCC(=O)Nc3cccc(C(=O)OCC)c3)nn2)CC1
RP-LC retention time: 675 s

C=CCNC(=O)c1cnn(-c2cc(-c3nc(CC)no3)ccn2)c1C
RP-LC retention time: 845 s

O=C(Nc1ccc(F)c(F)c1)C1CCN(C(=O)c2ncn3c2COC(c2ccc(F)cc2)C3)CC1 (centres undefined)
RP-LC retention time: 852 s

c1ccc(-c2nnc(CN3CCCCC3)o2)cc1
RP-LC retention time: 566 s

COc1cccc(-c2cc(C(N)=O)c3ccccc3n2)c1
RP-LC retention time: 760 s
